BindingDB's records for doi:10.7270/Q29K48M5 (University of Pittsburgh, 2007)

The molecules below were run against T1, M-phase inducer phosphatase 2 (Homo sapiens, UniProt P30305) (assay: inhibition of Cdc25B phosphatase activity – biochemical, 25 mM DTT, probe assessment, dose response (AID 649)).
T1 sequence (P30305 whole entry): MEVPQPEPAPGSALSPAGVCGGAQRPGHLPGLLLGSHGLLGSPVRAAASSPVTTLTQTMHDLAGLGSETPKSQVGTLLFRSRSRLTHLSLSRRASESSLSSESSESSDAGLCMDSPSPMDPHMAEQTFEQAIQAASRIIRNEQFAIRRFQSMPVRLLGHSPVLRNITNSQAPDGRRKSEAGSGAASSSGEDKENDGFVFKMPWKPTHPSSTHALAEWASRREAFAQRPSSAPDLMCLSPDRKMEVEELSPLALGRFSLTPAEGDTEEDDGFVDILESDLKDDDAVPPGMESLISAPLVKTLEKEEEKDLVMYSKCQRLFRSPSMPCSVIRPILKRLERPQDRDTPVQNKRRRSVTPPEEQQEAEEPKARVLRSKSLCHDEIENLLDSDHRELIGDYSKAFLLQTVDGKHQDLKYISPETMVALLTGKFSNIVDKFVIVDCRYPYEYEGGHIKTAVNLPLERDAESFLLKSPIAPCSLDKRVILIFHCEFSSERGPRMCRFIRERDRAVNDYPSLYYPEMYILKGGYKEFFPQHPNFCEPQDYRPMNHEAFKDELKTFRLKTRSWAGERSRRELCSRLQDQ

IC50 [µM]	SMILES
> 50	O=C(NC1(O)C(=O)c2ccccc2C1=O)c1ccccc1 [N-(2-hydroxy-1,3-dioxo-2-indenyl)benzamide]
11.7	COc1cccc2c1NC(C(=O)O)C1CC=CC21 (stereo not drawn) [SMR000009698]
> 50	c1ccc(CSc2nnc(-c3ccco3)c(-c3ccco3)n2)cc1 [MLS-0029114.0001]
11.4	Cc1ccc2c(c1)C1C=CCC1C(C(=O)O)N2 (stereo not drawn) [MLS-0067149.0001]
10.9	COc1cccc2c(C)c(C(=O)O)[nH]c12
7.42	O=C(OC1CCCCC1)c1ccc2c(c1)C1C=CCC1C(C(=O)O)N2 (stereo not drawn) [SMR000019385]
12.8	O=C(O)C1Nc2c(O)cccc2C2C=CCC12 (stereo not drawn)
> 50	[O-]/[N+](=C\c1ccncc1)c1ccccc1
> 50	CCOC(=O)C(C(=O)OCC)c1cc(Br)c2noc3c2c1C(=O)c1ccccc1-3 [MLS000038842]
> 50	O=C1Cc2ccccc2C(=O)N1CCc1ccccc1 [2-(2-phenylethyl)-4H-isoquinoline-1,3-dione]
> 50	CCOc1ccc2noc3c2c1C(=O)c1ccccc1-3 [MLS000106837]
39.8	O=C(Nc1ccc2nc(-c3ccco3)c(-c3ccco3)nc2c1)N1CCCCCC1
> 50	Cc1c(N=c2c(=O)c3ccccc3c2=O)c(=O)n(-c2ccccc2)n1C [MLS000105950]
42.3	Cc1ccccc1Nc1cc2ccccc2c(O)n1 [3-[(2-methylphenyl)amino]-2H-isoquinolin-1-one]
> 50	O=C1C=Cc2ccccc2/C1=C/NC12CN3CCN(CN(C3)C1)C2 [MLS000071484]
17.7	Cc1ccc2c(c1C)NC(C(=O)O)C1CC=CC21 (stereo not drawn)
> 50	[O-]/[N+](=C\c1ccc(OC(F)F)cc1)c1ccccc1 [1-[4-(difluoromethoxy)phenyl]-N-phenylmethanimine oxide]
> 50	COc1ccc2noc3c2c1C(=O)c1ccccc1-3 [MLS000106874]
49.3	N#Cc1c(N)sc(=S)c2c1CCN(Cc1ccccc1)C2 [3-Amino-7-benzyl-1-thioxo-5,6,7,8-tetrahydro-1H-thiopyrano[3,4-c]pyridine-4-carbonitrile]
> 50	Nc1cccc2cnccc12 [isoquinolin-5-amine]
48	Oc1nc(Nc2ccccc2)cc2ccccc12 [MLS000043701]
> 50	N#Cc1c(N2CCCC2)nc(N)c2c(N)nc(N3CCCC3)cc12 [SMR000061605]
14.7	COc1ccc(Br)cc1C=c1sc2nc(-c3ccco3)nn2c1=O [5-[(5-bromanyl-2-methoxy-phenyl)methylidene]-2-(furan-2-yl)-[1,3]thiazolo[3,2-b][1,2,4]triazol-6-one]

SMILES	IC50 [µM]
Cn1ncnc2c(=O)n(C)c(=O)nc1-2	34.5
CCn1nc(-c2cccs2)nc2c(=O)n(C)c(=O)nc1-2 [1-ethyl-6-methyl-3-thiophen-2-yl-pyrimido[5,4-e][1,2,4]triazine-5,7-dione]	17.2
CC(=O)Nc1cc(OC(C)=O)c2nonc2c1OC(C)=O [Acetic acid 7-acetoxy-5-acetylamino-benzo[1,2,5]oxadiazol-4-yl ester]	> 50
CCn1nc(-c2ccccc2)nc2c(=O)n(C)c(=O)nc1-2 [1-Ethyl-6-methyl-3-phenyl-1H-pyrimido[5,4-e][1,2,4]triazine-5,7-dione]	21.1
O=C1C=Cc2ccccc2C1=O [1,2-dihydronaphthalene-1,2-dione]	> 50
